Measured values published in patent US8048879B2, “Substituted 4,5,6,7-tetrahydro-isoxazolo[4,5-c]pyridine compounds and use thereof for producing medicaments” (Gruenenthal GmbH, priority 2005, dated 2011).
Where a name gives a salt, the structure may show the parent alone.

What was measured:
[1] = biological target: T1, 5-HT transporter (Rattus norvegicus, UniProt P31652); test: 5-HT uptake inhibition, synaptosomes from rat brain (medulla and pons); type: biochemical
T1 construct: from tissue; host or cells: rat brain (medulla and pons), synaptosomes, P2 fraction
T1 sequence (P31652 whole entry): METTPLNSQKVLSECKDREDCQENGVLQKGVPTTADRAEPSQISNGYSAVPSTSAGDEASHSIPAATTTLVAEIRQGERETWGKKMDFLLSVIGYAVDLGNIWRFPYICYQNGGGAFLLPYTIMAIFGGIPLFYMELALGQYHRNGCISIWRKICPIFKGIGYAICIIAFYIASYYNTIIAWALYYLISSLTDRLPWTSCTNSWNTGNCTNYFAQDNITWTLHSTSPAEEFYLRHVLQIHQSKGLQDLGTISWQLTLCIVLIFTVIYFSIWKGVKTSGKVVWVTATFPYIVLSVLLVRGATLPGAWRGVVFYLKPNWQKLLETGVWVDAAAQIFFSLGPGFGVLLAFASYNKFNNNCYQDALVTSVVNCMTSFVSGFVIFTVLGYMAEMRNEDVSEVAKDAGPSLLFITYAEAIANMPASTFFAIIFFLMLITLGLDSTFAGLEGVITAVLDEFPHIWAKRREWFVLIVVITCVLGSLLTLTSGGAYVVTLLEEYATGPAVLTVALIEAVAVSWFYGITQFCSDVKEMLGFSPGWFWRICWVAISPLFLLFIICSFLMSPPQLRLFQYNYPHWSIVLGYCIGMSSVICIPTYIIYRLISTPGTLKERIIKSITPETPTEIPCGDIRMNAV
How it was run: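 Freshly isolated rat brain synaptosomes (P2 fraction): hypothalamus for NA uptake, medulla/pons for 5-HT uptake. Uptake of [3H]-NA (7.5 min) or [3H]-5-HT (5 min) at room temperature under O2, stopped by filtration over GF/B. Retained radioactivity counted by scintillation.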

[2] = biological target: T2, NA transporter (Rattus norvegicus, UniProt Q9WTR4); test: Noradrenalin (NA) uptake inhibition, synaptosomes from rat brain (hypothalamus); type: biochemical
T2 construct: from tissue; host or cells: rat brain (hypothalamus), synaptosomes, P2 fraction
T2 sequence (Q9WTR4 1-597): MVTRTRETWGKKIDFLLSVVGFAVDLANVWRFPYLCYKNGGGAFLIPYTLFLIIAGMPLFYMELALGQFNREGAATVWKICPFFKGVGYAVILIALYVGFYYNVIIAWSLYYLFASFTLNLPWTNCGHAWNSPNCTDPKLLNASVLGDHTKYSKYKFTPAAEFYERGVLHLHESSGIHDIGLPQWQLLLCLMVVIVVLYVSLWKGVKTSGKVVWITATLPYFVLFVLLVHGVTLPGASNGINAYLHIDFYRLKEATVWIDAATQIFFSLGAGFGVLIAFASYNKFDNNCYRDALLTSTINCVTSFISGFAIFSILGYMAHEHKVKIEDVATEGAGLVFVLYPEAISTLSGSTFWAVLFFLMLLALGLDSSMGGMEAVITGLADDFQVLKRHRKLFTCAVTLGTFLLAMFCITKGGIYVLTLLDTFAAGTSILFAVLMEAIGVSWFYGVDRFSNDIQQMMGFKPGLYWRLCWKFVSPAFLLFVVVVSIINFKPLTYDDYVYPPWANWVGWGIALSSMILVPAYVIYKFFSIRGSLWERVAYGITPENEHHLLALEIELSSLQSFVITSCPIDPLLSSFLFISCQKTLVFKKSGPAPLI
Source text: b) Method for Determining Noradrenalin and 5-HT Uptake Inhibition:
Synaptosomes from rat brain regions are freshly isolated for in vitro studies, as described in the publication “The isolation of nerve endings from brain” by E. G. Gray and V. P. Whittaker, J. Anatomy 96, pages 79-88, 1962. The corresponding literature description is hereby introduced as a reference and is deemed to be part of the disclosure.
The tissue (hypothalamus for the determination of noradrenalin uptake inhibition and medulla and pons for the determination of 5-HT uptake inhibition) is homogenised in ice-cooled 0.32 M sucrose (100 mg of tissue/1 mL) in a glass homogeniser with Teflon pestle using five complete up and down strokes at 840 revolutions/minute.
The homogenate is centrifuged at 4° C. for 10 minutes at 1000 g. After subsequent centrifugation at 17000 g for 55 minutes, the synaptosomes (P2 fraction) are obtained, which are resuspended in 0.32 M […] (0.5 mL/100 mg of original weight).
The particular uptake is measured in a 96-well microtitre plate. The volume is 250 μL and the incubation proceeds at room temperature (approx. 20-25° C.) under an O2 atmosphere.
The incubation time is 7.5 minutes for [^3H]-NA and 5 minutes for [^3H]-5-HT. The 96 samples are then filtered through a Unifilter GF/B® microtitre plate (Packard) and washed with 200 mL of incubated buffer using a “Brabdel MPXRI-96T Cell-Harvester”. The Unifilter GF/B plate is dried for 1 hour at 55° C. The plate is then sealed with a Back Seal® (Packard) and 35 μL of scintillation fluid are added per well (Ultima Gold®, Packard). After sealing with a top Seal® (Packard) and establishing an equilibrium (around 5 hours), radioactivity is determined in a “Trilux 1450 Microbeta” (Wallac).
The quantity of protein used in the above determination corresponds to the values known from the literature, as for example described in “Protein measurement with the folin phenol reagent”, Lowry et al., J. Biol. Chem., 193, 265-275, 1951.
A detailed description of the method may additionally be found in the literature, for example in M. Ch. Frink, H.-H. Hennies, W. Engelberger, M. Haurand and B. Wilffert (1996) Arzneim.-Forsch./Drug Res. 46 (III), 11, 1029-1036.
The following characteristics were determined for the NA or 5-HT transporter: […]

Row | melting point [°C] | Compound | inhibition at 10 µM [1] [%] | inhibition at 10 µM [2] [%] | 5-HT uptake (rat), 10 μM, % inhibition ([1]; 10 µM) [%]
1 | 187.8 | CC(=O)c1ccc(N2CCN(C(=O)c3noc4c3CN(S(=O)(=O)c3ccc(C)cc3)CC4)CC2)cc1 [Example 86, 1-(4-{4-[5-(Toluene-4-sulfonyl)-4,5,6,7-tetrahydro-isoxazolo[4,5-c]pyridine-3-carbonyl]-piperazin-1-yl}-phenyl)-ethanone] | 86 |  | 
2 |  | O=C(c1noc2c1CN(S(=O)(=O)c1ccc3ccccc3c1)CC2)N1CCN(c2nccs2)CC1 [Example 143, (5-(naphthalen-2-ylsulfonyl)-4,5,6,7-tetrahydroisoxazolo[4,5-c]pyridin-3-yl)(4-(thiazol-2-yl)piperazin-1-yl)methanone] | 29 | 44 | 
3 |  | Cc1cc(C)c(S(=O)(=O)N2CCc3onc(C(=O)N4CCN(CCCN(C)C)CC4)c3C2)c(C)c1 [Example 144, (4-(3-(dimethylamino)propyl)piperazin-1-yl)(5-(mesitylsulfonyl)-4,5,6,7-tetrahydroisoxazolo[4,5-c]pyridin-3-yl)methanone dihydrochloride] | 21 | 24 | 
4 |  | Cc1cc(C)c(S(=O)(=O)N2CCc3onc(C(=O)N4CCC(CCN5CCCC5)CC4)c3C2)c(C)c1 [Example 146, (5-(mesitylsulfonyl)-4,5,6,7-tetrahydroisoxazolo[4,5-c]pyridin-3-yl)(4-(2-(pyrrolidin-1-yl)ethyl)piperidin-1-yl)methanone] | 53 | 42 | 
5 |  | O=C(c1noc2c1CN(S(=O)(=O)c1ccc(Cl)c(Cl)c1)CC2)N1CCC(CCN2CCCC2)CC1 [Example 147, (5-(3,4-dichlorophenylsulfonyl)-4,5,6,7-tetrahydroisoxazolo[4,5-c]pyridin-3-yl)(4-(2-(pyrrolidin-1-yl)ethyl)piperidin-1-yl)methanone] | 35 | 34 | 
6 |  | O=C(c1noc2c1CN(S(=O)(=O)c1ccc3ccccc3c1)CC2)N1CCC(CCN2CCCC2)CC1 [Example 148, (5-(naphthalen-2-ylsulfonyl)-4,5,6,7-tetrahydroisoxazolo[4,5-c]pyridin-3-yl)(4-(2-(pyrrolidin-1-yl)ethyl)piperidin-1-yl)methanone] | 67 | 49 | 
7 |  | Cl.O=C(c1noc2c1CN(S(=O)(=O)c1cccc3ccccc13)CC2)N1CCC(CCN2CCCC2)CC1 [Example 149, (5-(Naphthalene-1-ylsulfonyl)-4,5,6,7-tetrahydroisoxazolo[4,5-c]pyridin-3-yl)(4-(2-(pyrrolidin-1-yl)ethyl)piperidin-1-yl)methanone hydrochloride] | 68 | 54 | 
8 |  | CC(NC(=O)N1CCc2onc(C(=O)NCc3ccccc3)c2C1)c1ccccc1 (stereo not drawn) [Example 150, N^3-benzyl-N^5-(1-phenylethyl)-6,7-dihydroisoxazolo[4,5-c]pyridine-3,5(4H)-dicarboxamide] | 58 | 27 | 
9 |  | COc1ccc(NC(=O)N2CCc3onc(C(=O)NCc4ccccc4)c3C2)cc1 [Example 151, N^3-benzyl-N^5-(4-methoxyphenyl)-6,7-dihydroisoxazolo[4,5-c]pyridine-3,5(4H)-dicarboxamide] | 36 | 34 | 
10 |  | Cc1ccc(NC(=O)c2noc3c2CN(S(=O)(=O)c2ccc(C)cc2)CC3)cc1 [Example 152, N-p-tolyl-5-tosyl-4,5,6,7-tetrahydroisoxazolo[4,5-c]pyridine-3-carboxamide] | 29 | 24 | 
11 |  | COCCNC(=O)c1noc2c1CN(C(=O)c1ccc(C(F)(F)F)c(F)c1)CC2 [Example 153, 5-(3-fluoro-4-(trifluoromethyl)benzoyl)-N-(2-methoxyethyl)-4,5,6,7-tetrahydroisoxazolo[4,5-c]pyridine-3-carboxamide] | 37 | -12 | 
12 |  | COc1ccc(NC(=O)N2CCc3onc(C(=O)NCc4ccc(S(N)(=O)=O)cc4)c3C2)cc1 [Example 154, N^5-(4-methoxyphenyl)-N^3-(4-sulfamoylbenzyl)-6,7-dihydroisoxazolo[4,5-c]pyridine-3,5(4H)-dicarboxamide] | -8 | -4 | 
13 |  | O=C(NCCN1CCCC1)c1noc2c1CN(C(=O)COc1cccc(Cl)c1)CC2 [Example 155, 5-(2-(3-chlorophenoxy)acetyl)-N-(2-(pyrrolidin-1-yl)ethyl)-4,5,6,7-tetrahydroisoxazolo[4,5-c]pyridine-3-carboxamide] | 92 | 70 | 
14 |  | O=C(Nc1ccccc1)c1noc2c1CN(C(=O)c1ccccc1F)CC2 [Example 156, 5-(2-fluorobenzoyl)-N-phenyl-4,5,6,7-tetrahydroisoxazolo[4,5-c]pyridine-3-carboxamide] | 10 | 23 | 
15 |  | Cc1ccc(S(=O)(=O)N2CCc3onc(C(=O)NCc4ccc(S(N)(=O)=O)cc4)c3C2)cc1 [Example 157, N-(4-sulfamoylbenzyl)-5-tosyl-4,5,6,7-tetrahydroisoxazolo[4,5-c]pyridine-3-carboxamide] |  | 45 | 15
